Laboratory results published in patent US20250019703A1, “PHARMACEUTICAL COMPOSITION FOR PREVENTION OR TREATMENT OF BLOOD CANCER COMPRISING SURF4 INHIBITOR” (PUSAN NATIONAL UNIVERSITY INDUSTRY-UNIVERSITY COOPERATION …, priority 2021, published 2025).

Assays:
[1] = system: STING in myeloid leukemia cells; experiment: Apoptosis and pTBK1 expression after cGAMP treatment; assay type: cell-based; settings: cells treated with cGAMP; FIG. 15B
Description: Based on a report that STING, one of the endoplasmic reticulum membrane proteins, induces apoptosis and binds to SURF4 and STAT6, cells were treated with cGAMP, which induces STING. Specifically, cells were collected and lysed with a lysis buffer to extract proteins, which were then separated on a 10% SDS-PAGE gel and transferred to a membrane. pJNK, JNK, BAX, caspase 9, cleaved caspase 9, caspase 3, cleaved caspase 3, PARP, IRE1α, GRP78, PERK, pelF2α, elF2α, ATF4, CHOP, pSTAT6, STAT6, STING, pTBK1, and actin antibodies were each added, allowed to stand at 4° C. for 16 hours, and then a secondary antibody was added and allowed to stand at room temperature for one hour. Afterward, the resulting mixture was allowed to react with an ECL reagent, and the ECL was measured using a chemiluminescence image analyzer.

[2] = system: THP1, HL60, and K562 cells; experiment: Annexin V/7AAD apoptosis after paclitaxel treatment; assay type: cell-based, human; settings: paclitaxel 0.5 μM alone, FIG. 5
Description: (§1) Apoptosis was measured after treating SURF4 shRNA-transfected THP1, HL60, and K562 cells with paclitaxel. The transfected SURF4 shRNA was the same as in Example 1-(1). Specifically, the concentration of paclitaxel treated in the THP1, HL60, and K562 cells was 0.5 μM, and after transfecting the cells with SURF4 shRNA, the cells were treated with paclitaxel 7 to 10 days later. Afterward, cells of each type were collected and suspended with an Annexin V binding buffer, and then Annexin V-FITC and 7AAD were added to perform measurement using a FACS flow cytometer.

[3] = system: THP1, HL60, and K562 cells; experiment: Annexin V/7AAD apoptosis after tunicamycin treatment; assay type: cell-based, human; settings: tunicamycin 10 μM alone, FIG. 7
Description: as §1, with “tunicamycin.” for “paclitaxel.”, “tunicamycin” for “paclitaxel”, “10” for “0.5”

[4] = system: pSTAT6 in THP1 and HL60 cells; experiment: Western blot of pSTAT6 after IL4 treatment; assay type: cell-based, human; settings: IL4 5 ng/ml for 60 minutes, FIG. 12
Description: Based on a report that apoptosis is induced by pSTAT6 through IL4 in leukemia cells, the expression of pSTAT6 was confirmed by treating a leukemia cell line with IL4, which induces STAT6. Specifically, THP1 and HL60 cells transfected with 6 μg of SURF4 shRNA were lysed by treating them with IL4 (5 ng/ml) for 60 minutes, and then Western blot was performed, and the SURF4 expression in the THP1 and HL60 cells transfected with SURF4 shRNA was measured by qRT-PCR. The cells were lysed with a lysis buffer to extract proteins, which were then separated on a 10% SDS-PAGE gel and transferred to a membrane. pJNK, JNK, BAX, caspase 9, cleaved caspase 9, caspase 3, cleaved caspase 3, PARP, IRE1α, GRP78, PERK, pelF2α, elF2α, ATF4, CHOP, pSTAT6, STAT6, STING, pTBK1, and actin antibodies were each added, allowed to stand at 4° C. for 16 hours, and then a secondary antibody was added and allowed to stand at room temperature for one hour. Afterward, the resulting mixture was allowed to react with an ECL reagent, and the ECL was measured using a chemiluminescence image analyzer. In addition, RNA was extracted from the cells using an RNA extraction kit, and cDNA was synthesized from the RNA using a cDNA synthesis kit. A qRT-PCR analysis was performed using the synthesized cDNA, SURF4 primers, and a SYBR green.

In the case of `Nc1nc2c(ncn2[C@@H]2O[C@@H]3COP(=O)(O)O[C@H]4[C@@H](O)[C@H](n5cnc6c(N)ncnc65)O[C@@H]4COP(=O)(O)O[C@@H]2[C@@H]3O)c(=O)[nH]1` [cGAMP, cyclic guanosine monophosphate-adenosine monophosphate], the pTBK1 expression [1] is reported as “pTBK1 downstream of STING increased”.

`CC(=O)O[C@H]1C(=O)[C@@]2(C)[C@H]([C@H](OC(=O)c3ccccc3)[C@]3(O)C[C@H](OC(=O)[C@H](O)[C@@H](NC(=O)c4ccccc4)c4ccccc4)C(C)=C1C3(C)C)[C@]1(OC(C)=O)CO[C@@H]1C[C@@H]2O` [paclitaxel] was tested, and the apoptosis [2] was “induced apoptosis”.

For tunicamycin, the apoptosis [3] was “induced apoptosis”.

B1: IL4: interleukin-4, which induces STAT6 / the expression of pSTAT6 (protein, UniProt P05112 25-153, looked up)
Interleukin-4: HKCDITLQEIIKTLNSLTEQKTLCTELTVTDIFAASKNTTEKETFCRAATVLRQFYSHHEKDTRCLGATAQQFHRHKQLIRFLKRLDRNLWGLAGLNSCPVKEANQSTLENFLERLKTIMREKYSKCSS
B1 was tested, and the “pSTAT6 expression (Western blot)” value [4] was “pSTAT6 increased in both the control cells and the cells transfected with SURF4 shRNA”.
